Measurements taken from patent US20240374740A1, “POLY AMPHIPHILIC COMPLEXES FOR THE DELIVERY OF A HYDROPHOBIC ACTIVE AGENT, COMPOSITIONS AND METHODS” (Université de Liège, priority 2021, published 2024).
Converted amounts (≈) assume the structure as drawn.

How the values were obtained:
[1] = free drug; cited from earlier work
[2] = Evolution with time of optical density (Do at 405 nm) of curcumin solutions in PBS pH 7.4 at 37° C.; assay type: physicochemical; conditions: PBS pH 7.4, 37° C.
[3] = test system: 3D7 cells synchronized at ring stage; assay: In vitro antimalarial growth inhibition assay (GIA), flow cytometry after 48 h; assay type: cell-based, P. falciparum; conditions: Plasmodium falciparum, 3D7, 48 h
Experimental: Since P. falciparum I usually asynchronous during in vitro culture, the generation of highly synchronized parasite cultures is requested to investigate their pharmacological properties in vitro. […] Samples of the PACs were incubated with the cells for 48 h and then parasitemia was evaluated by flow cytometry after labelling parasite nuclei with fluorescence (growth inhibition assay, GIA).
PACs loaded with atovaquone were analysed with 3D7 cells synchronized at ring stage. Samples were incubated with the cells for 48 h and then parasitemia was evaluated by flow cytometry after labelling parasite nuclei with fluorescence (growth inhibition assay, GIA). The pharmacological activity of atovaquone is expressed in terms of drug concentration needed to inhibit 50% of the cell population (IC50) (FIG. 9).

[4] = cited from earlier work; for solubility in water: free drug, 25° C.
[5] = Dynamic Light Scattering (DLS) mean size of PACs; assay type: physicochemical; conditions: ibuprofen formulations by direct dissolution, 2 h after preparation
plasma proteins = conditions: in vivo; cited from earlier work

## Ivermectin
[1]
  LogP: 5.83

## COc1cc(/C=C/C(=O)CC(=O)/C=C/c2ccc(O)c(OC)c2)ccc1O [Curcumin, curcumin]
[2]; With BSA (1%), curcumin 2 μg/mL, 1 h
  optical density (Do at 405 nm): 0.275
[2]; With BSA (1%), curcumin 2 μg/mL, 24 h
  optical density (Do at 405 nm): 0.214
[2]; With BSA (1%), curcumin 2 μg/mL, 96 h
  optical density (Do at 405 nm): 0.437
[2]; With BSA (1%), curcumin 10 μg/mL, 1 h
  optical density (Do at 405 nm): 1.102
[2]; With BSA (1%), curcumin 10 μg/mL, 24 h
  optical density (Do at 405 nm): 1.007
[2]; With BSA (1%), curcumin 10 μg/mL, 96 h
  optical density (Do at 405 nm): 0.701
[2]; With BSA (1%), curcumin 20 μg/mL, 1 h
  optical density (Do at 405 nm): 1.875
[2]; With BSA (1%), curcumin 20 μg/mL, 24 h
  optical density (Do at 405 nm): 1.508
[2]; With BSA (1%), curcumin 20 μg/mL, 96 h
  optical density (Do at 405 nm): 0.899
[2]; Without BSA, curcumin 2 μg/mL, 1 h
  optical density (Do at 405 nm): 0.068
[2]; Without BSA, curcumin 2 μg/mL, 24 h
  optical density (Do at 405 nm): 0.019
[2]; Without BSA, curcumin 2 μg/mL, 96 h
  optical density (Do at 405 nm): 0.001
[2]; Without BSA, curcumin 10 μg/mL, 1 h
  optical density (Do at 405 nm): 0.321
[2]; Without BSA, curcumin 10 μg/mL, 24 h
  optical density (Do at 405 nm): 0.097
[2]; Without BSA, curcumin 10 μg/mL, 96 h
  optical density (Do at 405 nm): 0.064
[2]; Without BSA, curcumin 20 μg/mL, 1 h
  optical density (Do at 405 nm): 0.717
[2]; Without BSA, curcumin 20 μg/mL, 24 h
  optical density (Do at 405 nm): 0.253
[2]; Without BSA, curcumin 20 μg/mL, 96 h
  optical density (Do at 405 nm): 0.113
[3]
  IC50: 14.2 µM
Curcumin 5 mg/ml, direct dissolution in aqueous phase (Example 3)
  macroscopic aspect: slightly yellow and less turbid suspension
[4]
  solubility class in water (free drug): practically insoluble
  solubility in water: < 1 µg/mL

## CC(C)Cc1ccc(C(C)C(=O)O)cc1 (stereo not shown) [Ibuprofen]
[5]
  Cumulant DLS diameter: >1,000,000 nm
Ibuprofen 5 mg/mL, polymer 45 mg/mL, direct dissolution in water, room temperature
  Macroscopic aspect 2 h after dissolution: Macroscopic crystals
[4]
  solubility in water: 0.21 µg/mL (≈ 1.02 µM)

## O=C1C(O)=C([C@H]2CC[C@H](c3ccc(Cl)cc3)CC2)C(=O)c2ccccc21 [Atovaquone]
[3]
  IC50: 0.00084 µM
[4]
  solubility class in water (free drug): practically insoluble
[1]
  LogP: 5.8
Plasma proteins
  bound to plasma proteins: 99.9%

## CCCSc1nc(N[C@@H]2C[C@H]2c2ccc(F)c(F)c2)c2nnn([C@@H]3C[C@H](OCCO)[C@@H](O)[C@H]3O)c2n1 [Ticagrelor]
[1]
  LogP: 2.28
